In ChEMBL document CHEMBL3272129, “Synthesis of 3-(4-acylaminopiperazin-1-ylalkyl)indoles as potential antihypertensive agents” (1977):
Active and inactive are the calls of the source. No cut-off for these calls is given here.

Assays:
Format in all cases: functional
[1] = tested on: Rattus norvegicus; test: Antihypertensive activity in spontaneous hypertensive rat model assessed as change in blood pressure at 100 mg/kg, po on day 1 and 3 measured 2 hrs post dose on day 1 by standard 3-day test
[2] = tested on: Rattus norvegicus; test: Antihypertensive activity in spontaneous hypertensive rat model assessed as change in blood pressure at 100 mg/kg, po on day 1 and 3 measured 2 hrs post dose on day 3 by standard 3-day test
[3] = tested on: Rattus norvegicus; test: Antihypertensive activity in spontaneous hypertensive rat model assessed as change in blood pressure at 50 mg/kg, po on day 1 and 3 measured 2 hrs post dose on day 3 by standard 3-day test

Structure (SMILES)	Activity [1]	Activity [2]	Activity [3] [mmHg]
O=C(NN1CCN(CCc2c[nH]c3ccccc23)CC1)c1ccc(C(F)(F)F)cc1	9 mmHg	36 mmHg	–
Cc1[nH]c2ccccc2c1CCN1CCN(NC(=O)c2ccc(F)cc2)CC1	29 mmHg	25 mmHg	–
O=C(NN1CCN(CCc2c[nH]c3ccccc23)CC1)c1cccc(C(F)(F)F)c1	49 mmHg	19 mmHg	–
O=C(NN1CCN(CCc2c[nH]c3ccccc23)CC1)c1ccc(F)cc1	56 mmHg	57 mmHg	–
O=C(NN1CCN(CCc2c[nH]c3ccccc23)CC1)c1ccc(Cl)cc1	17 mmHg	22 mmHg	–
O=C(NN1CCN(Cc2c[nH]c3ccccc23)CC1)c1ccccc1	Active	Active	–
COc1cc2[nH]c(C)c(CCN3CCN(NC(=O)c4ccc(F)cc4)CC3)c2cc1OC	9 mmHg	23 mmHg	–
COc1cccc(C(=O)NN2CCN(CCc3c[nH]c4ccccc34)CC2)c1	21 mmHg	2 mmHg	–
Cl.O=C(NC1CCN(CCc2c[nH]c3ccccc23)CC1)c1ccccc1 [INDORAMIN HYDROCHLORIDE]	63 mmHg	–	79
COc1cc2[nH]c(C)c(CCN3CCN(NC(=O)c4ccccc4OC)CC3)c2cc1OC.Cl	4 mmHg	15 mmHg	–
Cc1cccc(C(=O)NN2CCN(CCc3c[nH]c4ccccc34)CC2)c1	17 mmHg	26 mmHg	–
O=C(NN1CCN(Cc2c[nH]c3ccccc23)CC1)c1ccc(F)cc1	Active	Active	–
Cc1ccc(C(=O)NN2CCN(CCc3c[nH]c4ccccc34)CC2)cc1	18 mmHg	43 mmHg	–
O=C(NN1CCN(CCc2c[nH]c3ccccc23)CC1)c1ccccc1F	47 mmHg	56 mmHg	–
O=C(NN1CCN(CCc2c[nH]c3ccccc23)CC1)c1ccco1	58 mmHg	64 mmHg	–
O.O=C(NN1CCN(CCc2c[nH]c3ccccc23)CC1)c1ccccc1	24 mmHg	56 mmHg	–
O=C(NN1CCN(CC(O)c2c[nH]c3ccccc23)CC1)c1ccccc1 (racemic)	30 mmHg	33 mmHg	–

Structure (SMILES)	Activity [1]	Activity [2]	Activity [3] [mmHg]
O=C(NN1CCN(CCc2c[nH]c3ccccc23)CC1)C1CCCCC1	37 mmHg	35 mmHg	–
COc1cc(C(=O)NN2CCN(CCc3c[nH]c4ccccc34)CC2)cc(OC)c1OC	63 mmHg	70 mmHg	–
Cc1ccccc1C(=O)NN1CCN(CCc2c[nH]c3ccccc23)CC1	19 mmHg	19 mmHg	–
COc1cc2[nH]c(C)c(CCN3CCN(NC(=O)c4ccc(C(F)(F)F)cc4)CC3)c2cc1OC.Cl	2 mmHg	5 mmHg	–
COc1cc(C(=O)NN2CCN(Cc3c[nH]c4ccccc34)CC2)cc(OC)c1OC	20 mmHg	36 mmHg	–
O=C(NN1CCN(CCc2c[nH]c3ccccc23)CC1)C(c1ccccc1)c1ccccc1	3 mmHg	10 mmHg	–
CC(=O)NN1CCN(CCc2c[nH]c3ccccc23)CC1	32 mmHg	40 mmHg	–
O=C(NN1CCN(CCc2c[nH]c3ccccc23)CC1)C1CC2CCC1C2 (stereo unspecified)	20 mmHg	11 mmHg	–
O=C(NN1CCN(CCc2c[nH]c3ccccc23)CC1)c1ccncc1	23 mmHg	24 mmHg	–
COc1cc(OC)cc(C(=O)NN2CCN(CCc3c[nH]c4ccccc34)CC2)c1	46 mmHg	111 mmHg	–
COc1ccc(C(=O)NN2CCN(CCc3c[nH]c4ccccc34)CC2)cc1	25 mmHg	19 mmHg	–
Cc1[nH]c2ccccc2c1CCN1CCN(NC(=O)c2ccc([N+](=O)[O-])cc2)CC1	25 mmHg	20 mmHg	–
COc1ccccc1C(=O)NN1CCN(CCc2c[nH]c3ccccc23)CC1	7 mmHg	23 mmHg	–
Cc1[nH]c2ccccc2c1CCN1CCN(NC(=O)c2ccccc2)CC1	39 mmHg	37 mmHg	–
COc1cc2[nH]c(C)c(CCN3CCN(NC(=O)c4ccccc4)CC3)c2cc1OC	9 mmHg	12 mmHg	–
O=C(NN1CCN(CCc2c[nH]c3ccccc23)CC1)c1ccc([N+](=O)[O-])cc1	17 mmHg	16 mmHg	–
